# Legend:
# Experiment in all cases: Kinase inhibitor library screening, PrestoBlue cell viability, 1 or 10 μM, 72 h
# [1] = system: A375-GP cells (Dabrafenib-resistant); conditions: A375 GP
# [2] = system: A375 cells (parental); conditions: A375 Parental
# [3] = system: IGR37-GP cells (Dabrafenib-resistant); conditions: IGR37 GP
# [4] = system: 501Mel-XP cells (Vemurafenib-resistant); conditions: 501Mel XP
# [5] = system: IGR37-XP cells (Vemurafenib-resistant); conditions: IGR37 XP
# [6] = system: IGR37 cells (parental); conditions: IGR37 Parental
# [7] = system: 501Mel cells (parental); conditions: 501Mel Parental
# In short: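 Each compound was applied to parental melanoma cells and to derivatives made resistant to Vemurafenib or Dabrafenib. After treatment, viability was read with PrestoBlue on a plate reader and expressed as % of untreated cells, with each line run at least in duplicate.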
# [8] = system: 501Mel-GP cells (Dabrafenib-resistant); conditions: 501Mel GP
# [9] = system: A375-XP cells (Vemurafenib-resistant); conditions: A375 XP
smiles,measurement,setting,value
C=CC(=O)Nc1cc2c(Nc3ccc(F)c(Cl)c3)ncnc2cc1OCCCN1CCOCC1 [CI-1033 (Canertinib)],"cell viability, A375 GP, 1μΜ","[1]; 1μΜ, 72 h, in %",99.4
same,"cell viability, A375 GP, 10μΜ","[1]; 10μΜ, 72 h, in %",23.3
same,"cell viability, A375 Parental, 1μΜ","[2]; 1μΜ, 72 h, in %",105.5
same,"cell viability, A375 Parental, 10μΜ","[2]; 10μΜ, 72 h, in %",24.5
same,"cell viability, IGR37 GP, 10μΜ","[3]; 10μΜ, 72 h",30.7%
same,"cell viability, IGR37 GP, 1μΜ","[3]; 1μΜ, 72 h, in %",92.4
same,"cell viability, 501Mel XP, 1μΜ","[4]; 1μΜ, 72 h, in %",93.9
same,"cell viability, 501Mel XP, 10μΜ","[4]; 10μΜ, 72 h, in %",0.248
same,"cell viability, IGR37 XP, 10μΜ","[5]; 10μΜ, 72 h",23.7%
same,"cell viability, IGR37 XP, 1μΜ","[5]; 1μΜ, 72 h, in %",99.0
same,"cell viability, IGR37 Parental, 1μΜ","[6]; 1μΜ, 72 h, in %",98.8
same,"cell viability, IGR37 Parental, 10μΜ","[6]; 10μΜ, 72 h, in %",53.7
same,"cell viability, 501Mel Parental, 1μΜ","[7]; 1μΜ, 72 h, in %",103.3
same,"cell viability, 501Mel Parental, 10μΜ","[7]; 10μΜ, 72 h, in %",35.1
same,"cell viability, 501Mel GP, 1μΜ","[8]; 1μΜ, 72 h, in %",102.8
same,"cell viability, 501Mel GP, 10μΜ","[8]; 10μΜ, 72 h, in %",1.4
same,"cell viability, A375 XP, 10μΜ","[9]; 10μΜ, 72 h, in %",15.2
COc1cc2nccc(Oc3ccc(NC(=O)C4(C(=O)Nc5ccc(F)cc5)CC4)cc3)c2cc1OC [XL-184 free base (Cabozantinib)],cell viability (kinase inhibitor library screening),"[1]; 1μΜ, in %",97.8
same,cell viability (kinase inhibitor library screening),"[1]; 10μΜ, in %",41.3
same,cell viability (kinase inhibitor library screening),"[2]; 1μΜ, in %",98.4
same,cell viability (kinase inhibitor library screening),"[2]; 10μΜ, in %",40.5
same,cell viability (kinase inhibitor library screening),"[3]; 1μΜ, in %",96.8
same,cell viability (kinase inhibitor library screening),"[3]; 10μΜ, in %",14.8
same,cell viability (kinase inhibitor library screening),"[4]; 1μΜ, in %",58.9
same,cell viability (kinase inhibitor library screening),"[4]; 10μΜ, in %",24.9
same,cell viability (kinase inhibitor library screening),"[5]; 1μΜ, in %",90.6
same,cell viability (kinase inhibitor library screening),"[5]; 10μΜ, in %",3.1
same,cell viability (kinase inhibitor library screening),"[6]; 1μΜ, in %",94.2
same,cell viability (kinase inhibitor library screening),"[6]; 10μΜ, in %",42.6
same,cell viability (kinase inhibitor library screening),"[7]; 1μΜ, in %",90.2
same,cell viability (kinase inhibitor library screening),"[7]; 10μΜ, in %",73.6
same,cell viability (kinase inhibitor library screening),"[8]; 1μΜ, in %",76.7
same,cell viability (kinase inhibitor library screening),"[8]; 10μΜ, in %",38.8
same,cell viability (kinase inhibitor library screening),"[9]; 10μΜ, in %",51.6
CC(C)(C)c1cc(/C=C(\C#N)C(N)=S)cc(C(C)(C)C)c1O [Tyrphostin AG 879 (AG 879)],"cell viability, A375 GP, 10μΜ","[1]; 10μΜ, 72 h, in %",19.7
same,"cell viability, A375 Parental, 1μΜ","[2]; 1μΜ, 72 h, in %",103.1
same,"cell viability, A375 Parental, 10μΜ","[2]; 10μΜ, 72 h, in %",21.0
same,"cell viability, IGR37 GP, 10μΜ","[3]; 10μΜ, 72 h",60.1%
same,"cell viability, 501Mel XP, 1μΜ","[4]; 1μΜ, 72 h, in %",98.6
same,"cell viability, 501Mel XP, 10μΜ","[4]; 10μΜ, 72 h, in %",18.3
same,"cell viability, IGR37 XP, 10μΜ","[5]; 10μΜ, 72 h",21.5%
same,"cell viability, IGR37 XP, 1μΜ","[5]; 1μΜ, 72 h, in %",90.9
same,"cell viability, IGR37 Parental, 10μΜ","[6]; 10μΜ, 72 h, in %",83.4
same,"cell viability, 501Mel Parental, 1μΜ","[7]; 1μΜ, 72 h, in %",115.0
same,"cell viability, 501Mel Parental, 10μΜ","[7]; 10μΜ, 72 h, in %",44.8
same,"cell viability, 501Mel GP, 1μΜ","[8]; 1μΜ, 72 h, in %",110.4
same,"cell viability, 501Mel GP, 10μΜ","[8]; 10μΜ, 72 h, in %",23.6
same,"cell viability, A375 XP, 1μΜ","[9]; 1μΜ, 72 h, in %",105.8
same,"cell viability, A375 XP, 10μΜ","[9]; 10μΜ, 72 h, in %",24.1
Cl.Cl.Clc1ccc(Nc2nnc(Cc3ccncc3)c3ccccc23)cc1 [Vatalanib dihydrochloride (PTK787)],cell viability (kinase inhibitor library screening),"[1]; 1μΜ, in %",96.3
same,cell viability (kinase inhibitor library screening),"[1]; 10μΜ, in %",92.3
same,cell viability (kinase inhibitor library screening),"[2]; 1μΜ, in %",105.1
same,cell viability (kinase inhibitor library screening),"[2]; 10μΜ, in %",92.8
same,cell viability (kinase inhibitor library screening),"[3]; 1μΜ, in %",95.0
same,cell viability (kinase inhibitor library screening),"[3]; 10μΜ, in %",83.6
same,cell viability (kinase inhibitor library screening),"[4]; 1μΜ, in %",94.6
same,cell viability (kinase inhibitor library screening),"[4]; 10μΜ, in %",73.0
same,cell viability (kinase inhibitor library screening),"[5]; 10μΜ, in %",58.7
same,cell viability (kinase inhibitor library screening),"[6]; 1μΜ, in %",118.3
same,cell viability (kinase inhibitor library screening),"[6]; 10μΜ, in %",92.4
same,cell viability (kinase inhibitor library screening),"[7]; 1μΜ, in %",98.6
same,cell viability (kinase inhibitor library screening),"[7]; 10μΜ, in %",93.0
same,cell viability (kinase inhibitor library screening),"[8]; 1μΜ, in %",106.0
same,cell viability (kinase inhibitor library screening),"[8]; 10μΜ, in %",81.7
same,cell viability (kinase inhibitor library screening),"[9]; 10μΜ, in %",99.5
CCN(CCO)CCCOc1ccc2c(Nc3cc(CC(=O)Nc4cccc(F)c4)[nH]n3)ncnc2c1 [Barasertib (AZD1152-HQPA)],cell viability (kinase inhibitor library screening),"[1]; 1μΜ, 72 h",57.9%
same,cell viability (kinase inhibitor library screening),"[1]; 10μΜ, 72 h",61.1%
same,cell viability (kinase inhibitor library screening),"[2]; 10μΜ, 72 h",59.0%
same,cell viability (kinase inhibitor library screening),"[2]; 1μΜ, 72 h",59.4%
same,cell viability (kinase inhibitor library screening),"[3]; 1μΜ, 72 h",98.3%
same,cell viability (kinase inhibitor library screening),"[3]; 10μΜ, 72 h",91.0%
same,cell viability (kinase inhibitor library screening),"[4]; 1μΜ, 72 h",90.3%
same,cell viability (kinase inhibitor library screening),"[4]; 10μΜ, 72 h",81.8%
same,cell viability (kinase inhibitor library screening),"[5]; 1μΜ, 72 h",98.0%
same,cell viability (kinase inhibitor library screening),"[5]; 10μΜ, 72 h",51.5%
same,cell viability (kinase inhibitor library screening),"[6]; 1μΜ, 72 h",93.5%
same,cell viability (kinase inhibitor library screening),"[6]; 10μΜ, 72 h",81.6%
same,cell viability (kinase inhibitor library screening),"[7]; 1μΜ, 72 h",96.3%
same,cell viability (kinase inhibitor library screening),"[7]; 10μΜ, 72 h",92.5%
same,cell viability (kinase inhibitor library screening),"[8]; 1μΜ, 72 h",99.2%
same,cell viability (kinase inhibitor library screening),"[8]; 10μΜ, 72 h",86.2%
same,cell viability (kinase inhibitor library screening),"[9]; 1μΜ, 72 h",66.2%
same,cell viability (kinase inhibitor library screening),"[9]; 10μΜ, 72 h",68.8%
